This note sets out measurements from patent publication US11339171B2, “MDM2 inhibitors” (Gan & Lee Pharmaceuticals, priority 2017, dated 2022).

Several values for one entry are separate records, joined by “and”; a condition that tells them apart may be missing. Identical values can stand only once. Like-named read-outs stand apart in the source and are kept apart here.

Data set [1] deals with T1, MDM2 (Homo sapiens, UniProt Q00987).
T1 construct: made in house
As to the kind of experiment: Inhibition test of MDM2-P53 (GST-MDM2, Biotin-P53, Anti-GST-Tb, SA-XL665). The format is binding. Conditions: labels are Example numbers; the compounds with S-configuration are meant. How it is done: Experimental purpose: To determine the inhibitory activities of the compounds of the present invention on MDM2.
The present experiment uses the following assay methods/instruments/reagents:
Buffer: 1×PBS+0.1% BSA+5 mM DTT; MDM2 Buffer: Buffer+1 mM AEBSF
GST-MDM2: The final concentration is 4 nM, and it is required to formulate a 20 nM (5×) solution. A mother liquor is diluted by 3500 folds, wherein the mother liquor is 10-fold diluted first, and then 350-fold diluted.
Anti-GST-Tb: The final concentration is 2×, and a mother liquor is diluted by 50 folds.
MIX: GST-MDM2, Biotin-P53, SA-XL665 and Anti-GST-Tb were mixed according to a ratio of 4:4:5:5.
Sample: Preparation of a sample (10 mM in DMSO) solution: a. 3 μL sample+7 μL DMSO+20 μL DMSO were formulated to give an initial concentration of 1 mM and mixed well; b. in plate 1, twelve 5-fold serial dilutions (sequentially prepared by adding 10 μL of the last sample to 40 μL DMSO) were prepared and mixed well, individually; c. plate 2 was taken, 45 μL of Buffer was added to each well, and 5 μL of dilution at each concentration was taken from plate 1 and added to the corresponding well in plate 2 (the concentration in well 1 was 100 μM), and mixed well.
1. 18 μL of MIX was added to a 384-well plate, and centrifugation was performed at 4500 rpm for 5 min.
2. 2 μL of sample was added correspondingly to each well, the resultant was centrifuged at 25° C. and 4500 rpm for 5 min, and shaked at 25° C. for 90 min on a shaker.
Readings were obtained from the Microplate reader, and data was processed by Graphpad Prism 6.0.

Data set [2] is described as follows: Pharmacokinetics in ICR mice after intravenous and intragastric administration. It counts as in vivo. As to conditions: for MRT last: read-out: MRT(0-t); for MRT inf: read-out: MRT(0-∞); for Tmax: read-out: Tmax; for Vd: read-out: Vz; for half-life: read-out: t1/2 (converted). How it is done:
Experimental Example 3 Determination of the Pharmacokinetics of the Mdm2 Inhibitors of the Present Invention in Mice
ICR mice were used as the test animals, and the concentrations of the drugs in plasma of mice at different time points after intravenous administration and intragastric administration of the representative compounds were measured by a LC/MS/MS method, so as to study the pharmacokinetic behavior of the compounds of the present invention in mice and evaluate the pharmacokinetic characteristics thereof.
Some compounds prepared in Examples 1-180 of the present invention.
The control drug HDM201 was prepared by the method disclosed in patent No. CN104203952A.
Healthy adult ICR mice, male, 6-9 weeks old, weighing 20-30 g, purchased from Shanghai Xipuer-Bikai Laboratory Animal Co., Ltd., Animal Production License No.: SCXK (HU) 2013-0016
3.2.3 Preparation of Test Drugs
Intragastric or intravenous administration: an appropriate amount of sample was weighed, dissolved in 5% DMSO+40% PEG400+55% (10% HP-β-CD in Saline) to prepare a 0.5 mg/ml solution for intragastric or intravenous administration.
3.2.4 Administration of Test Drugs
Intravenous administration: for each test compound, 3 male ICR mice were administered intravenously at a dose of 2 mg/kg and an administration volume of […] after fasting overnight.
Intragastric administration: for each test compound, 3 male ICR mice were administered intragastrically at a dose of 5 mg/kg and an administration volume of […] after fasting overnight.
3.3 Experimental Operation
The collected plasma was stored at −80° C. before analysis. The plasma sample was analyzed by LC-MS/MS, and the sample was pretreated by protein precipitation method. The linear range of sample analysis was 1 to 2000 ng/ml. The lowest quantification limit was 1 ng/mL. WinNonlin (Pharsight, USA) was used to calculate the following pharmacokinetic parameters: area under the curve AUC(0-t), area under the curve AUC(0-∞), half-life t1/2, retention time MRT(0-∞), blood drug concentration Cmax, time taken to reach the peak blood drug concentration Tmax, bioavailability F, apparent volume of distribution Vz, and clearance rate CL.

The mark [3] stands for this setting: IV 2 mg/kg, ICR mice, individual animal, 2 mg/kg.
[4] abbreviates: PO 5 mg/kg, ICR mice, individual animal, 5 mg/kg.
[5] abbreviates: male, ICR, mouse, plasma, iv, 2 mg/kg, IV 2 mg/kg, ICR mice, Mean.
The mark [6] stands for this setting: male, ICR, mouse, plasma, iv, 2 mg/kg, IV 2 mg/kg, ICR mice, individual animal.
Setting [7] is: male, ICR, mouse, plasma, po, 5 mg/kg, PO 5 mg/kg, ICR mice, Mean.
The mark [8] stands for this setting: male, ICR, mouse, plasma, po, 5 mg/kg, PO 5 mg/kg, ICR mice, individual animal.

T1 sequence (Q00987 whole entry): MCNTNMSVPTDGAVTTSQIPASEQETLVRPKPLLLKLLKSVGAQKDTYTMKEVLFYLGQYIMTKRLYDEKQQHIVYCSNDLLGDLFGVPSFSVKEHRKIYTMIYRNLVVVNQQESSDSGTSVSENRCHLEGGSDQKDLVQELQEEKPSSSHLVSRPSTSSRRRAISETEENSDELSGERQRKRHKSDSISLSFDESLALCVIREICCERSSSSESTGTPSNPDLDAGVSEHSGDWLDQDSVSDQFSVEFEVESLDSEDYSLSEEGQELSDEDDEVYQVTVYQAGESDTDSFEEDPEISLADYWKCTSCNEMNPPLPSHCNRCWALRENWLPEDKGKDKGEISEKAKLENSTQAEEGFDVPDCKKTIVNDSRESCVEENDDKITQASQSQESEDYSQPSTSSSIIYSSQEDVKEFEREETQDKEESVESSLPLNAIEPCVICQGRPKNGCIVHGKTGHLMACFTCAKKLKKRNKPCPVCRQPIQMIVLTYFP

Regarding `COc1ccncc1-c1nc2c(n1C(C)C)C1(C(=O)Nc3cc(Cl)ccc31)N(c1cc(Cl)ccc1C)C2=O` (stereo not drawn) [Example 18, 6-chloro-5′-(5-chloro-2-methylphenyl)-3′-isopropyl-2′-(4-methoxypyridin-3-yl)-3′H-spiro[dihydroindole-3,4′-pyrrolo[3,4-d]imidazole]-2,6′(5′H)-dione], in data set [1], the “inhibitory effect on MDM2 compared with positive control compound HDM201” value is given as “better”.
Same read-out and setting: with `CNC(=O)c1ccc(OC)c(-c2nc3c(n2C(C)C)C2(C(=O)Nc4cc(Cl)ccc42)N(c2cc(Cl)ccc2C)C3=O)c1` (stereo not drawn) [Example 21, 3-(6-chloro-5′-(5-chloro-2-methylphenyl)-3′-isopropyl-2,6′-dioxo-5′,6′-dihydro-3′H-spiro[dihydroindole-3,4′-pyrrolo[3,4-d]imidazole]-2′-yl)-4-methoxy-N-methylbenzamide] the entry was “better”.
Still for that read-out and setting: with `COc1ccc(C(N)=O)cc1-c1nc2c(n1C(C)C)C1(C(=O)Nc3cc(Cl)ccc31)N(c1cc(Cl)ccc1C)C2=O` (stereo not drawn) [Example 29, 3-(6-chloro-5′-(5-chloro-2-methylphenyl)-3′-isopropyl-2,6′-dioxo-5′,6′-dihydro-3′H-spiro[dihydroindole-3,4′-pyrrolo[3,4-d]imidazole]-2′-yl)-4-methoxybenzamide] the entry was “better”; with `COc1ncc(-c2nc3c(n2C(C)C)C2(C(=O)Nc4cc(Cl)ccc42)N(c2cc(Cl)ccc2F)C3=O)c(OC)n1` (stereo not drawn) [Example 44, 6-chloro-5′-(5-chloro-2-fluorophenyl)-2′-(2,4-dimethoxypyrimidin-5-yl)-3′-isopropyl-3′H-spiro[dihydroindole-3,4′-pyrrolo[3,4-d]imidazole]-2,6′(5′H)-dione], “better”.
The same measure, in the same setting: with `COc1ncc(-c2nc3c(n2C(C)C)C2(C(=O)Nc4cc(Cl)ccc42)N(c2ccc(OC)c(Cl)c2)C3=O)c(OC)n1` (stereo not drawn) [Example 48, 6-chloro-5′-(3-chloro-4-methoxyphenyl)-2′-(2,4-dimethoxypyrimidin-5-yl)-3′-isopropyl-3′H-spiro[dihydroindole-3,4′-pyrrolo[3,4-d]imidazole]-2,6′(5′H)-dione] the entry was “better”.
For `COc1ncc(-c2nc3c(n2C(C)C)[C@H](c2ccc(Cl)cc2)N(c2cc(Cl)cn(C)c2=O)C3=O)c(OC)n1` [HDM201, reference compound], in data set [2] (setting [3]), the “AUC(0-t)” value was 520.23 ng·h/mL and 622.13 ng·h/mL; the “AUC(0-∞)” value was 600.29 ng·h/mL and 713.62 ng·h/mL; the CL is 55.5285 mL/min/kg and 46.7105 mL/min/kg; the Cmax was 459.85 ng/mL and 585.03 ng/mL. Further, in data set [2] (setting [3]), the “MRT(0-t)” value is 40.8 min and 39.6 min; the “MRT(0-∞)” value is 58.8 min and 57.6 min; the Vz is 3.23181 L/kg and 2.7173 L/kg; the t1/2 is 40.2 min. For the same compound, in data set [2] (PO 5 mg/kg vs IV 2 mg/kg, ICR mice), the “F*” value came to 78.76%. Moreover, in data set [2] (setting [4]), the “AUC(0-t)” value was 797.19 ng·h/mL and 1522.78 ng·h/mL; the “AUC(0-∞)” value was 818.45 ng·h/mL and 1539.76 ng·h/mL; the Cmax is 584.08 ng/mL and 715.01 ng/mL; the “MRT(0-t)” value was 62.4 min and 109 min. Besides, in data set [2] (setting [4]), the “MRT(0-∞)” value was 69 min and 115 min; the t1/2 is 44.4 min and 74.4 min. For the same compound, in data set [2] (setting [5]), the AUC(0-inf) stood at 644 ng·h/mL, the clearance was 52 mL/min/kg, the MRT last is 38.4 min and the MRT inf worked out at 54 min. Moreover, in data set [2] (setting [5]), the Tmax was determined as 4.98 min, the Vd turned out to be 2.8 L/kg and the half-life was 37.2 min. Besides, the AUC(0-t) in data set [2] (male, ICR, mouse, plasma, iv, 2 mg/kg, IV 2 mg/kg, ICR mice, Mean, read-out: AUC(0-t)) came to 572 ng·h/mL. Further, in data set [2] (male, ICR, mouse, plasma, iv, 2 mg/kg, IV 2 mg/kg, ICR mice, Mean, read-out: Cmax), the Cmax was determined as 550 ng/mL. Moreover, in data set [2] (setting [6]), the AUC(0-inf) was determined as 619 ng·h/mL, the clearance is 53.8 mL/min/kg, the MRT last turned out to be 35.4 min and the MRT inf was 45 min. For the same compound, in data set [2] (setting [6]), the Tmax is 4.8 min, the Vd was 2.46 L/kg and the half-life is 31.8 min. Further, the AUC(0-t) in data set [2] (male, ICR, mouse, plasma, iv, 2 mg/kg, IV 2 mg/kg, ICR mice, individual animal, read-out: AUC(0-t)) stood at 574 ng·h/mL. The highest concentration (Cmax) in data set [2] (male, ICR, mouse, plasma, iv, 2 mg/kg, IV 2 mg/kg, ICR mice, individual animal, read-out: Cmax) is 606 ng/mL. Moreover, in data set [2] (setting [7]), the AUC(0-inf) came out at 1150 ng·h/mL, the MRT last stood at 96 min, the MRT inf was determined as 103 min and the Tmax is 30 min. Besides, in data set [2] (setting [7]), the half-life is 66.6 min. Also, the AUC(0-t) in data set [2] (male, ICR, mouse, plasma, po, 5 mg/kg, PO 5 mg/kg, ICR mice, Mean, read-out: AUC(0-t)) is 1130 ng·h/mL. Moreover, the Cmax in data set [2] (male, ICR, mouse, plasma, po, 5 mg/kg, PO 5 mg/kg, ICR mice, Mean, read-out: Cmax) amounted to 569 ng/mL. In addition, in data set [2] (setting [8]), the total exposure AUC(0-inf) came to 1080 ng·h/mL, the MRT last was 116 min, the MRT inf came out at 125 min and the Tmax stood at 30 min. Further, in data set [2] (setting [8]), the half-life was 80.4 min. Besides, in data set [2] (male, ICR, mouse, plasma, po, 5 mg/kg, PO 5 mg/kg, ICR mice, individual animal, read-out: AUC(0-t)), the AUC(0-t) stood at 1060 ng·h/mL. Moreover, the Cmax in data set [2] (male, ICR, mouse, plasma, po, 5 mg/kg, PO 5 mg/kg, ICR mice, individual animal, read-out: Cmax) stood at 409 ng/mL. In addition, in data set [2] (male, ICR, mouse, plasma, po, 5 mg/kg, oral intragastric administration 5 mg/kg, read-out: AUC0-t), the AUC(0-t) turned out to be 1130 ng·h/mL. In data set [2] (male, ICR, mouse, plasma, oral intragastric administration 5 mg/kg, read-out: bioavailability), the bioavailability was 78.8%.

One may read the Cmax as the peak of the concentration-time curve. In general, Vz refers to a proportionality between amount in the body and measured concentration, not a real space. Read a low Vz as little distribution into tissue. What is called AUC(0-inf) is total exposure, with the tail of the curve extrapolated. What is called clearance is a measure of how efficiently the substance is removed, as volume per time. The Tmax is the time at which the peak concentration occurs. The term bioavailability denotes dose-corrected exposure relative to a reference, in per cent.
